Active and inactive are the calls of the source. How the calls were made is not given here.
Test system: CCRIS mutagenicity, Ames/micronucleus/aberration tests
Assay: CCRIS mutagenicity studies

Measured: mutagenic call

Nc1ccc(Cl)cc1
inactive: End Point: IN VITRO MICRONUCLEUS, Test System: CHL/IU CELLS, Metabolic Activation: RAT, LIVER, S-9, PHENOBARBITAL AND 5,6-BENZOFLAVONE inactive; negative | Test System: AMES SALMONELLA TYPHIMURIUM, Strain/Indicator: TA97, Metabolic Activation: HAMSTER, LIVER, S-9, AROCLOR 1254, Method: PREINCUBATION inactive; negative | Test System: AMES SALMONELLA TYPHIMURIUM, Strain/Indicator: TA97, Metabolic Activation: NONE, Method: PREINCUBATION inactive; negative | Test System: AMES SALMONELLA TYPHIMURIUM, Strain/Indicator: TA97, Metabolic Activation: RAT, LIVER, S-9, AROCLOR 1254, Method: PREINCUBATION inactive; negative | Test System: AMES SALMONELLA TYPHIMURIUM, Strain/Indicator: TA98, Metabolic Activation: NONE, Method: PREINCUBATION inactive; negative | Test System: AMES SALMONELLA TYPHIMURIUM, Strain/Indicator: TA98, Metabolic Activation: NONE, Method: SPOT TEST inactive; negative | Test System: AMES SALMONELLA TYPHIMURIUM, Strain/Indicator: TA98, Metabolic Activation: RAT, LIVER, S-9, AROCLOR 1254, Method: SPOT TEST inactive; negative | Test System: AMES SALMONELLA TYPHIMURIUM, Strain/Indicator: TA98, Metabolic Activation: RAT, LIVER, S-9, SODIUM PHENOBARBITONE, Method: SPOT TEST inactive; negative | Test System: AMES SALMONELLA TYPHIMURIUM, Strain/Indicator: TA98, Metabolic Activation: RAT, LIVER, S-9, SODIUM PHENOBARBITONE, Method: STANDARD PLATE inactive; negative | Test System: AMES SALMONELLA TYPHIMURIUM, Strain/Indicator: TA100, Metabolic Activation: HAMSTER, LIVER, S-9 (5% OR 10%), AROCLOR 1254, Method: PREINCUBATION inactive; negative | Test System: AMES SALMONELLA TYPHIMURIUM, Strain/Indicator: TA100, Metabolic Activation: HAMSTER, LIVER, S-9, AROCLOR 1254, Method: PREINCUBATION inactive; negative | Test System: AMES SALMONELLA TYPHIMURIUM, Strain/Indicator: TA100, Metabolic Activation: HAMSTER, LIVER, S-9, AROCLOR 1254, Method: STANDARD PLATE inactive; negative | Test System: AMES SALMONELLA TYPHIMURIUM, Strain/Indicator: TA100, Metabolic Activation: NONE, Method: PREINCUBATION inactive; negative | Test System: AMES SALMONELLA TYPHIMURIUM, Strain/Indicator: TA100, Metabolic Activation: NONE, Method: SPOT TEST inactive; negative | Test System: AMES SALMONELLA TYPHIMURIUM, Strain/Indicator: TA100, Metabolic Activation: RAT, LIVER, S-9 (5% OR 10%), AROCLOR 1254, Method: PREINCUBATION inactive; negative | Test System: AMES SALMONELLA TYPHIMURIUM, Strain/Indicator: TA100, Metabolic Activation: RAT, LIVER, S-9 (30%), AROCLOR 1254, Method: PREINCUBATION inactive; negative | Test System: AMES SALMONELLA TYPHIMURIUM, Strain/Indicator: TA100, Metabolic Activation: RAT, LIVER, S-9, AROCLOR 1254, Method: PREINCUBATION inactive; negative | Test System: AMES SALMONELLA TYPHIMURIUM, Strain/Indicator: TA100, Metabolic Activation: RAT, LIVER, S-9, AROCLOR 1254, Method: SPOT TEST inactive; negative | Test System: AMES SALMONELLA TYPHIMURIUM, Strain/Indicator: TA100, Metabolic Activation: RAT, LIVER, S-9, AROCLOR 1254, Method: STANDARD PLATE inactive; negative | Test System: AMES SALMONELLA TYPHIMURIUM, Strain/Indicator: TA100, Metabolic Activation: RAT, LIVER, S-9, SODIUM PHENOBARBITONE, Method: SPOT TEST inactive; negative | Test System: AMES SALMONELLA TYPHIMURIUM, Strain/Indicator: TA100, Metabolic Activation: RAT, LIVER, S-9, SODIUM PHENOBARBITONE, Method: STANDARD PLATE inactive; negative | Test System: AMES SALMONELLA TYPHIMURIUM, Strain/Indicator: TA1535, Metabolic Activation: HAMSTER, LIVER, S-9, AROCLOR 1254, Method: PREINCUBATION inactive; negative | Test System: AMES SALMONELLA TYPHIMURIUM, Strain/Indicator: TA1535, Metabolic Activation: NONE, Method: PREINCUBATION inactive; negative | Test System: AMES SALMONELLA TYPHIMURIUM, Strain/Indicator: TA1535, Metabolic Activation: NONE, Method: SPOT TEST inactive; negative | Test System: AMES SALMONELLA TYPHIMURIUM, Strain/Indicator: TA1535, Metabolic Activation: NONE, Method: STANDARD PLATE inactive; negative | Test System: AMES SALMONELLA TYPHIMURIUM, Strain/Indicator: TA1535, Metabolic Activation: RAT, LIVER, S-9, AROCLOR 1254, Method: PREINCUBATION inactive; negative | Test System: AMES SALMONELLA TYPHIMURIUM, Strain/Indicator: TA1535, Metabolic Activation: RAT, LIVER, S-9, AROCLOR 1254, Method: SPOT TEST inactive; negative | Test System: AMES SALMONELLA TYPHIMURIUM, Strain/Indicator: TA1535, Metabolic Activation: RAT, LIVER, S-9, AROCLOR 1254, Method: STANDARD PLATE inactive; negative | Test System: AMES SALMONELLA TYPHIMURIUM, Strain/Indicator: TA1535, Metabolic Activation: RAT, LIVER, S-9, SODIUM PHENOBARBITONE, Method: SPOT TEST inactive; negative | Test System: AMES SALMONELLA TYPHIMURIUM, Strain/Indicator: TA1535, Metabolic Activation: RAT, LIVER, S-9, SODIUM PHENOBARBITONE, Method: STANDARD PLATE inactive; negative | Test System: AMES SALMONELLA TYPHIMURIUM, Strain/Indicator: TA1537, Metabolic Activation: HAMSTER, LIVER, S-9, AROCLOR 1254, Method: PREINCUBATION inactive; negative | Test System: AMES SALMONELLA TYPHIMURIUM, Strain/Indicator: TA1537, Metabolic Activation: NONE, Method: PREINCUBATION inactive; negative | Test System: AMES SALMONELLA TYPHIMURIUM, Strain/Indicator: TA1537, Metabolic Activation: NONE, Method: SPOT TEST inactive; negative | Test System: AMES SALMONELLA TYPHIMURIUM, Strain/Indicator: TA1537, Metabolic Activation: NONE, Method: STANDARD PLATE inactive; negative | Test System: AMES SALMONELLA TYPHIMURIUM, Strain/Indicator: TA1537, Metabolic Activation: RAT, LIVER, S-9, AROCLOR 1254, Method: PREINCUBATION inactive; negative | Test System: AMES SALMONELLA TYPHIMURIUM, Strain/Indicator: TA1537, Metabolic Activation: RAT, LIVER, S-9, AROCLOR 1254, Method: SPOT TEST inactive; negative | Test System: AMES SALMONELLA TYPHIMURIUM, Strain/Indicator: TA1537, Metabolic Activation: RAT, LIVER, S-9, AROCLOR 1254, Method: STANDARD PLATE inactive; negative | Test System: AMES SALMONELLA TYPHIMURIUM, Strain/Indicator: TA1537, Metabolic Activation: RAT, LIVER, S-9, SODIUM PHENOBARBITONE, Method: SPOT TEST inactive; negative | Test System: AMES SALMONELLA TYPHIMURIUM, Strain/Indicator: TA1537, Metabolic Activation: RAT, LIVER, S-9, SODIUM PHENOBARBITONE, Method: STANDARD PLATE inactive; negative | Test System: AMES SALMONELLA TYPHIMURIUM, Strain/Indicator: TA1538, Metabolic Activation: NONE, Method: SPOT TEST inactive; negative | Test System: AMES SALMONELLA TYPHIMURIUM, Strain/Indicator: TA1538, Metabolic Activation: NONE, Method: STANDARD PLATE inactive; negative | Test System: AMES SALMONELLA TYPHIMURIUM, Strain/Indicator: TA1538, Metabolic Activation: RAT, LIVER, S-9, AROCLOR 1254, Method: SPOT TEST inactive; negative | Test System: AMES SALMONELLA TYPHIMURIUM, Strain/Indicator: TA1538, Metabolic Activation: RAT, LIVER, S-9, AROCLOR 1254, Method: STANDARD PLATE inactive; negative | Test System: AMES SALMONELLA TYPHIMURIUM, Strain/Indicator: TA1538, Metabolic Activation: RAT, LIVER, S-9, SODIUM PHENOBARBITONE, Method: SPOT TEST inactive; negative | Test System: AMES SALMONELLA TYPHIMURIUM, Strain/Indicator: TA1538, Metabolic Activation: RAT, LIVER, S-9, SODIUM PHENOBARBITONE, Method: STANDARD PLATE inactive; negative | Test System: E. COLI, Strain/Indicator: WP2 UVRA(P), Metabolic Activation: NONE, Method: STANDARD PLATE inactive; negative | Test System: E. COLI, Strain/Indicator: WP2 UVRA, Metabolic Activation: NONE, Method: FLUCTUATION TEST inactive; negative | Test System: E. COLI, Strain/Indicator: WP2 UVRA, Metabolic Activation: NONE, Method: STANDARD PLATE inactive; negative
active: Test System: AMES SALMONELLA TYPHIMURIUM, Strain/Indicator: TA98, Metabolic Activation: HAMSTER, LIVER, S-9 (10%), AROCLOR 1254, Method: PREINCUBATION active; positive | Test System: AMES SALMONELLA TYPHIMURIUM, Strain/Indicator: TA98, Metabolic Activation: HAMSTER, LIVER, S-9, AROCLOR 1254, Method: STANDARD PLATE active; positive | Test System: AMES SALMONELLA TYPHIMURIUM, Strain/Indicator: TA98, Metabolic Activation: RAT, LIVER, S-9 (5%, 10% OR 30%), AROCLOR 1254, Method: PREINCUBATION active; positive | Test System: MOUSE LYMPHOMA, Strain/Indicator: L5178Y (TK+/TK-), Metabolic Activation: NONE, Method: SUSPENSION/PLATE active; positive | Test System: MOUSE LYMPHOMA, Strain/Indicator: L5178Y (TK+/TK-), Metabolic Activation: RAT, LIVER, S-9, AROCLOR 1254, Method: SUSPENSION/PLATE active; positive | Test System: Mouse lymphoma, Strain/Indicator: L5178Y (tk+/tk-), Metabolic Activation: None, Method: Suspension/plate active; equivocal (previous evaluation positive) | Test System: Mouse lymphoma, Strain/Indicator: T5178Y (tk+/tk-), Metabolic Activation: Rat, Liver, S-9, Aroclor 1254, Method: Suspension/plate active; inconclusive (previous evaluation positive)
